Data published in patent US20160235807A1, “AGONISTS OF GUANYLATE CYCLASE USEFUL FOR DOWNREGULATION OF PRO-INFLAMMATORY CYTOKINES” (SYNERGY PHARMACEUTICALS, INC., priority 2013, published 2016).
Bridge positions count the residues as written; N and C are the ends. Square brackets hold non-standard residues; d marks the D form. Ends that are not written are not given here.

Experiments:
NF-κB [1] = test: Inhibition of NF-κB signaling in LPS-stimulated T84 cells, Western blot; type: cell-based, human
Experimental: Approximately 1.5×10^6 T84 cells were seeded into 100 mm dishes and cultured essentially as described (Shailubhai et al. 2000). At 85-90% confluence, cells were washed and treated with 10 μg/ml lipopolysaccharides (LPS) from Escherichia coli (Sigma-Aldrich, St. Louis, Mo.) for 4 h. Subsequent to LPS treatment, cells were washed and replenished with fresh media containing 8-Bromo-cyclic GMP (8-Br-cGMP) at 0, 0.1, 1, 10, 100 and 1000 μM (Enzo Life Science, Farmingdale, N.Y.), or SP-333 at 0, 0.01, 0.1, 1 and 10 μM together with 500 μM of phosphodiesterase inhibitor Zaprinast (Sigma-Aldrich, St. Louis, Mo.) for 16 h before harvest. For analyzing phosphorylation status of IKK-α/β, T84 cells were stimulated with LPS (10 μg/ml) for 4 h followed by treatment with 0.1 and 1.0 μM of SP-333 in the presence of 500 μM Zaprinast, for 2 h. The control cells (without LPS treatment) were washed and refilled with fresh media and harvested simultaneously with treated cells. Nuclear and cytosolic extracts were prepared by the previously described method (Aiamkitsumrit et al. 2007). Protein concentration was measured with a Bio-Rad protein assay kit (Bio-Rad, Hercules, Calif.). The extracts were stored at −80° C. until use.
T84 cells at 85-90% confluence were washed and treated with 10 μg/ml Escherichia coli LPS (Sigma-Aldrich, St. Louis, Mo.) for 4 h.
Western Blot analysis: This was performed essentially as described^21 employing either 50 μg of cytoplasmic or 25 μg proteins of the nuclear fractions. The blots were probed overnight with primary antibodies of interest (anti-p65 antibody, 1:200 dilution; anti-IκB antibody 1:500 dilution; anti-phosphorylated p65 antibody, 1:250 dilution; anti-phosphorylated IκB antibody 1:250 dilution; all were from Santa Cruz Biotechnology (Santa Cruz, Calif.). Anti-IKK-β and phosphorylated IKK-α/β (Ser 176/180) were purchased from Cell Signaling Technology, Boston, Mass. and used at 1:500 dilution; anti-mouse or anti-rabbit antibodies conjugated to […] were used for chemiluminescence detection as recommended by manufacturer (GE Healthcare, Piscataway, N.J.).

Src = test: Activation of Src and GCRA-mediated cGMP production by T84 cells (FIG. 13); type: cell-based, human; settings: activation of Src
[2] = tested on: Ki-67 labeling of crypt epithelial cells; test: Ki-67 labeling in large bowel cross sections, DSS-induced colitis in BDF-1 mice; type: in vivo, mouse; settings: 5-ASA treated mice
Excerpt: (§1) A total of 40 samples were chosen for analysis of MPO activity and Ki-67 labeling from the treatment groups that received SP-333, its vehicle control (0.1M phosphate buffer, pH 7) and the reference compound (5-ASA). A random number generator (www.random.org) was employed to select samples from these groups (7 from each of the SP-333-recipient groups and 6 from each of the vehicle and 5-ASA groups).
Employing standard procedures, two non-serial sections from each animal, were de-waxed in xylene and rehydrated in graded alcohols to PBS (pH 7.4). Endogenous peroxidase was blocked by incubation in 0.3% […] for 30 min. Antigen retrieval was performed by placing the slides in 1 L of citrate buffer (pH 6) and microwaving at high power for 20 minutes. After cooling for 15 minutes, sections were incubated with 10% normal goat serum for 30 minutes to block non-specific binding Primary antibody (mouse monoclonal IgG, clone MIB-1, Dako) at 1/50 dilution was added and incubated for 1 hour at room temperature. Sections were washed and incubated with biotinylated secondary IgG antibody (1/200 dilution; Vector Labs Inc.), for 45 minutes at room temperature. Subsequently, slides were washed and incubated with ABC Elite reagents (Vector Labs Inc.), for 30 minutes at room temperature. […] Sections were counterstained with thionine, dehydrated and mounted.

[3] = tested on: myeloperoxidase (MPO) activity in colon tissues; test: MPO activity in lysates from mid-colon tissues, DSS-induced colitis in BDF-1 mice; type: in vivo, mouse; settings: 5-ASA 100 mg/kg
Experimental: as §1
Myeloperoxidase activity in colonic tissue samples was performed according to the method described (Krawisc et al., 1984). Briefly, the rate of change in absorbance at 450 nm was recorded when 20 μl of tissue extract was incubated with […] of reaction buffer containing 0.26 mg/ml 0-dianisidine and 0.6 μl/ml H2O2. Each reaction was performed in triplicate. The rate of reaction was determined (initial slope) and normalized to protein concentration of sample.

DSS-induced colitis = DSS-induced colitis in BDF-1 mice; type: in vivo, mouse
Experimental: To evaluate the efficacy of plecanatide in DSS induced colitis model, 48 BDF-1 mice were divided into 8 treatment groups (6 mice/group). One group was not exposed to DSS (untreated control) and groups 2-8 were treated with 5% DSS in the drinking water on day 0. Plecanatide or SP-333 solutions formulated in 0.1M phosphate buffer (pH 7) was administered by oral gavage, once a day at 0.005, 0.05, 0.5, 2.5 and 5 mg/kg, from study day −1 (i.e. prior to initiation of DSS treatment) through day 6 for SP-333 or day 7 for plecanatide. DSS treatment was initiated on day 0 for groups 2-8 until the end of the study. Sulfasalazine (80 mg/kg) or 5-ASA (100 mg/kg) was used as positive control and was administered daily. Mice were sacrificed on day 7. The large intestine was removed and weighed. Distal section of the large intestine was collected and fixed as described above.
Disease activity index (DAI) was calculated by scoring in-life parameters starting from day −1 until the end of the study. Once daily, all mice were weighed and assessed for stool consistency, and the presence of overt blood in the stool or around the anus essentially similar to that reported earlier. Colitis severity was assessed by histopathological analyses of H&E stained tissue sections (Hegazi et al., 2005; Dave et al., 2009) employing the following criteria: (score 0) normal appearing crypts; (score 1) abnormal crypt pathology without ulceration; (score 2) depleted crypts with ulceration; (score 3) 20-50% depleted crypts and increased ulceration; (score 4) >50% depleted crypts with substantial ulceration and (score 5) totally ulcerated/inflamed colon with no crypts remaining. All slides were scored in a blinded manner. Colitis severity in TCRα−/− model was scored as previously described^25. All slides were scored in a blinded manner. Disease activity index (DAI) was calculated by assessing body weight, stool consistency, and the presence of overt blood in stools or around the anus, essentially similar to that reported earlier (Hamamoto et al., 1999).

[4] = type: in vitro ADME
Experimental: The potency of test peptides to stimulate cGMP synthesis in T84 cells was assayed by a published procedure (Shailubhai et al. 2000). Briefly, confluent monolayers of T-84 cells in 24-well plates were washed twice with 250 μl of DMEM containing 50 mM HEPES (pH 7.4), pre-incubated at 37° C. for 10 min with 250 μl of DMEM containing 50 mM HEPES (pH 7.4) and 1 mM isobutylmethylxanthine (IBMX), followed by incubation with test peptide for 30 min. The medium was aspirated, and the reaction was terminated by the addition of 3% perchloric acid. Following centrifugation, and neutralization with 0.1 N NaOH, the resulting supernatant was used directly for measurements of intracellular cGMP using an ELISA kit (Caymen Chemical, Ann Arbor, Mich.). Results are expressed as pmol of cGMP/mg of protein in the cell extracts.
Plecanatide and SP-333 were incubated in simulated intestinal fluid (SIF) for 6-24 h. Inactivated SIF was used as a control. Following the treatment, samples were analyzed by HPLC by cGMP production in T84 cells. […] The active metabolite, SP-338 was characterized by MS and MS/MS and identified to be formed via removal of carboxyl terminal leucine possibly due to cleavage by carboxypeptidases.

NF-κB [5] = test: Inhibition of NF-κB signaling in LPS-stimulated T84 cells, Western blot; type: cell-based, human; settings: zaprinast 500 μM alone
[6] = molecular target: guanylate cyclase C (GC-C) receptor (human, UniProt P25092 24-1073); test: cell-based or functional assay
Sequence of guanylate cyclase C (GC-C) receptor (P25092 24-1073): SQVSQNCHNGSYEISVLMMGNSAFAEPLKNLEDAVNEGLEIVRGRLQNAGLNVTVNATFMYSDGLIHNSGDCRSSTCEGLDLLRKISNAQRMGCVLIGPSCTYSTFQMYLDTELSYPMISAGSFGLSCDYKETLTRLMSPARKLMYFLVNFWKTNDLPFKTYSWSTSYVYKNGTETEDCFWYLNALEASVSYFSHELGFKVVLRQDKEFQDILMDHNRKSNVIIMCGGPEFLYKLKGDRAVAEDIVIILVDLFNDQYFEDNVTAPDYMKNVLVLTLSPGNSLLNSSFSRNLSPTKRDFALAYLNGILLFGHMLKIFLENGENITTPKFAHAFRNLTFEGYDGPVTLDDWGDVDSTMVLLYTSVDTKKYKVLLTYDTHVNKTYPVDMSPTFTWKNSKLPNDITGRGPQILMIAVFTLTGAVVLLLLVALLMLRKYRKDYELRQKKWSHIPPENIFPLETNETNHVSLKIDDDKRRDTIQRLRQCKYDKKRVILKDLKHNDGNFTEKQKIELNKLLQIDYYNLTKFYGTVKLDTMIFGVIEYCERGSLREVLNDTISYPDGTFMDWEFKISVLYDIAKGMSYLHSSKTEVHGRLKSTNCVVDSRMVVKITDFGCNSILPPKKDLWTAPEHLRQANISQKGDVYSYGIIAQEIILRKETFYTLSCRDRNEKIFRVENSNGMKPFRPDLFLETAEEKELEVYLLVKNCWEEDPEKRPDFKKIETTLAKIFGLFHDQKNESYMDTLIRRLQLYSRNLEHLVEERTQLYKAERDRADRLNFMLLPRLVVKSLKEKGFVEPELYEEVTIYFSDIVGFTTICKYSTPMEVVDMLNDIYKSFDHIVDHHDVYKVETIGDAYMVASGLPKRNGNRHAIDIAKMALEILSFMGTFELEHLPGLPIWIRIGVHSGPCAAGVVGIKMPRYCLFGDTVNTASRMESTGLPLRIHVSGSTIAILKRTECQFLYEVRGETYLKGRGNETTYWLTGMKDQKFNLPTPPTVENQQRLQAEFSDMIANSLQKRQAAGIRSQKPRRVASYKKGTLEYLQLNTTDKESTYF

[7] = 5-ASA 100 mg/kg, vs DSS alone or DSS plus vehicle

Q: Which “levels of phospho-p65” value (NF-κB [1]; LPS 10 μg/ml 4 h, then 8-Br-cGMP (1 mM) 16 h, zaprinast 500 μM) does the source give for `Nc1nc2c(nc(Br)n2[C@@H]2O[C@@H]3COP(=O)(O)O[C@H]3[C@H]2O)c(=O)[nH]1` [8-Br-cGMP, 8-Bromo-cyclic GMP, reference compound] here?
A: The value was “reduced levels of phospho-p65 in a dose-dependent manner”.

Q: For `[Cl][Hg][Cl]` [HgCl2], which “GCRA-mediated cGMP production by T84 cells” value (Src) is on record?
A: The value was “inhibited”.

Q: With `Nc1ccc(O)c(C(=O)O)c1` [5-ASA, 5-aminosalicylic acid, reference compound] as the molecule, how does the “proportion of Ki-67 positive crypts” value [2] read?
A: The value was 53.5±12.33%.

Q: And the “MPO activity compared to DSS treated animals” value [3]?
A: The value was “considerably reduced”.

Q: What about the “initial MPO activity” value ([3]; p=0.010) of the same molecule?
A: The value was 0.029±0.004 units/minute.

Q: And the “histological evaluation of colon tissues (crypts)” value (DSS-induced colitis; 5-ASA 100 mg/kg)?
A: Its value is “only patchy loss of crypts”.

Q: What about the “mean DAI scores” value (DSS-induced colitis; [7]) of the same molecule?
A: The value was “lower”.

Q: What about the “mean scores of colitis severity” value (DSS-induced colitis; [7]) of the same molecule?
A: The value was “lower”.

Q: What about the histopathology score (DSS-induced colitis; DSS+5-ASA 100 mg/kg, representative image FIG. 10F) of the same molecule?
A: Its histopathology score is 2.

Q: For “Asn^1-Asp^2-Glu^3-Cys^4-Glu^5-Leu^6-Cys^7-Val^8-Asn^9-Val^10-Ala^11-Cys^12-Thr^13-Gly^14-Cys^15 (NDECELCVNVACTGC) [SP-338]”, which “biological activity of the major metabolite of plecanatide in SIF” value [4] is on record?
A: Its value is “appears to retain biological activity”.

Q: What does the source list for `CCCOc1ccccc1-c1nc2nn[nH]c2c(=O)[nH]1` [zaprinast, reference compound]?
A: NF-κB activation (NF-κB [1]; zaprinast 500 μM alone, T84 cells): did not inhibit NF-κB activation; cGMP levels (NF-κB [5]): did not increase cGMP levels

Q: Which “cGMP accumulation in T84 cells (EC50)” value [6] does the source give for [dN]DECELCVNVACTGC[dL] (disulfide 4-12, 7-15) [SP-333] here?
A: Its value is 283 nM.

Q: And the “cGMP synthesis in T84 cells (EC50)” value [6]?
A: The value was 283 nM.

Q: With NDECELCVNVACTGCL (disulfide 4-12, 7-15) [Plecanatide (SP-304)] as the molecule, how does the “cGMP accumulation in T84 cells (EC50)” value [6] read?
A: Its value is 189 nM.
